Data set [1] has as its target T1, human long isoform of D2 receptor (D2LR) (Homo sapiens, UniProt P14416).
T1 construct: expressed in transfected cells; host or cells: HEK293T
Description: BRET assay of Gi activation, agonistic effect at the D2R canonical pathway, in HEK-293T cells. The note with it: BRET signal after 5 min stimulation, decrease = activation. It counts as cell-based.
Description: HEK293T cells were cultured in Dulbecco’s modified eagle medium (DMEM) supplemented with 10% fetal bovine serum and 100 U/mL penicillin/streptomycin at 37°C in 5% CO2. Forty-eight hours before the experiments, cells were transfected in suspension, using polyethylenimine (PEI; 25 kDa linear; Polysciences, Warrington, PA, USA) at a ratio of 3:1 PEI/DNA, and directly seeded in 96-well white plates (OptiPlate; PerkinElmer) at a density of 4 × 10^4 cells/well and at 37°C in 5% CO2. When needed, total DNA amount was adjusted with salmon sperm DNA (Invitrogen, Carlsbad, CA, USA).

Data set [2] addresses T1, human long isoform of D2 receptor (D2LR). Description: BRET assay of inhibition of dopamine-induced Gi activation in HEK-293T cells. It counts as cell-based. The note with it: 100 nM dopamine; for Ki: Ki (nM) (95% CI), apparent affinity, IC50 corrected by Cheng–Prusoff, HEK-293T; for I max for inhibition of the dopamine effect on Gi: text summary over 5 and 20 min. An excerpt:
(§1) Then, for every compound, we calculate the ratios of their K i and I max values for the two pathways.

Data set [3] shares this target. Description: ebBRET assay of inhibition of dopamine-induced β-arrestin-2 translocation in HEK-293T cells. It counts as cell-based. The note with it: 10 µM dopamine; for Ki: Ki (nM) (95% CI), apparent affinity, IC50 corrected by Cheng–Prusoff, HEK-293T.
Description: as §1

The target is the same in data set [4]. Description: Estimation of functional selectivity between Gi and β-arr2 pathways (ratios of Ki, Imax, Imax/Ki). In kind it is cell-based.
Description: as §1

Data set [5] can be described thus: Solubility limit seen in inhibition curves. In kind it is physicochemical. The note with it: complete inhibition curves not obtained in Gi antagonism assay.

Structures are written as SMILES.

T1 sequence (P14416 whole entry, canonical isoform): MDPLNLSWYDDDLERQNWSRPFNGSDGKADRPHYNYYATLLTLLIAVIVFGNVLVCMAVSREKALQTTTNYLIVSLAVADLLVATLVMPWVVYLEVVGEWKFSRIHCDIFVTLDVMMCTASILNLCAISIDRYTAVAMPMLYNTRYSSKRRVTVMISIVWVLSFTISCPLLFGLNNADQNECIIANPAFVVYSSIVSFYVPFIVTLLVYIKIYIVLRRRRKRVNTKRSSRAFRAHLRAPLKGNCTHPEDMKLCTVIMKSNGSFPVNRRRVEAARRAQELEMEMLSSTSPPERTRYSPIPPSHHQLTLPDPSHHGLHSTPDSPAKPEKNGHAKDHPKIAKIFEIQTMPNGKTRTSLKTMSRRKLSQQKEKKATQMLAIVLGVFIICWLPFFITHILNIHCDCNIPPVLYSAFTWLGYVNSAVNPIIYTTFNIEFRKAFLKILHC

As to `Clc1ccc(-n2cc(CN3CCN(c4ccccc4)CC3)cn2)cc1` [LASSBio-579, 1-((1-(4-chlorophenyl)-1H-pyrazol-4-yl)methyl)-4-phenylpiperazine], the “E max for Gi activation (change in BRET signal)” value in data set [1] is −0.07. Further, the “I max (% dopamine effect) ± S.E.M., 5 min Gi” value in data set [2] (5 min) is recorded as 75.1 ± 16.3 % dopamine effect. For the same compound, the “I max (% dopamine effect) ± S.E.M., 20 min Gi” value in data set [2] (20 min) stood at 72.4 ± 9.8 % dopamine effect. In addition, the Ki in data set [2] (5 min Gi, 5 min) worked out at 118 nM; in data set [2] (20 min Gi, 20 min), 66.7 nM; in data set [3] (5 min β-arr, 5 min), 109 nM; in data set [3] (20 min β-arr, 20 min), 41.6 nM. In data set [2], the “I max for inhibition of the dopamine effect on Gi” value is given as 70–80%. Moreover, in data set [3] (5 min), the “I max (% dopamine effect) ± S.E.M., 5 min β-arr” value is recorded as 148 ± 20 % dopamine effect. Moreover, the “I max (% dopamine effect) ± S.E.M., 20 min β-arr” value in data set [3] (20 min) amounted to 129 ± 12 % dopamine effect. For the same compound, the “Imax (Gi)/Imax (β-arr)” value in data set [4] (5 min) is 0.51; in data set [4] (20 min) it was 0.56. The “Ki (Gi)/Ki (β-arr)” value is reported as 1.08 in data set [4] (5 min) and 1.60 in data set [4] (20 min). Also, the Solubility result in data set [5] was “lack of solubility at higher concentrations”.

Regarding `Oc1ccc(N2CCN(Cc3cnn(-c4ccc(Cl)cc4)c3)CC2)cc1` [LQFM 037], the “E max for Gi activation (change in BRET signal)” value in data set [1] is listed as −0.04. Further, the “I max (% dopamine effect) ± S.E.M., 5 min Gi” value in data set [2] (5 min) is 78.9 ± 19.2 % dopamine effect. Also, in data set [2] (20 min), the “I max (% dopamine effect) ± S.E.M., 20 min Gi” value is listed as 71.6 ± 13.7 % dopamine effect. The Ki in data set [2] (5 min Gi, 5 min) is 263 nM; in data set [2] (20 min Gi, 20 min), 190 nM; in data set [3] (5 min β-arr, 5 min), 353 nM; in data set [3] (20 min β-arr, 20 min) it was 209 nM. Besides, in data set [2], the “I max for inhibition of the dopamine effect on Gi” value is 70–80%. In addition, the “I max (% dopamine effect) ± S.E.M., 5 min β-arr” value in data set [3] (5 min) came out at 71.3 ± 12.3 % dopamine effect. Also, the “I max (% dopamine effect) ± S.E.M., 20 min β-arr” value in data set [3] (20 min) was 94.2 ± 7.4 % dopamine effect. Further, the “Imax (Gi)/Imax (β-arr)” value is reported as 1.11 in data set [4] (5 min) and 0.76 in data set [4] (20 min). Moreover, the “Ki (Gi)/Ki (β-arr)” value in data set [4] (5 min) is on record as 0.74; in data set [4] (20 min), 0.91. Also, the Solubility entry in data set [5] is “lack of solubility at higher concentrations”.

The record behind these values is paper PMC6558205 (Frontiers in Pharmacology, 2019).
